This is an account of results in PMC13576449, “Small-Molecule Activators of PRMT1: Discovery, SAR Analyses, and Proapoptotic Effects in Pancreatic Cancer Cells” (Journal of Medicinal Chemistry, 2026).

The test system of experiment [1] is ADMA in PANC-1 xenograft tissues. Description: Immunofluorescence staining of ADMA in xenograft tumor tissue. In kind it is in vivo, mouse. Conditions: after 2 weeks treatment, compared to PBS or gemcitabine alone. The protocol:
6 Effect of small-molecule modulators on gemcitabine-induced apoptosis and tumor growth of PDAC cells. […] After 2 h, gemcitabine (GEM) was added at increasing concentrations (10 and 25 nM) or not (−) for another incubation of 72 h. Subsequently, the luminescence-based caspase3/7 assay was performed. The activity of caspase 3/7 in treated cells was normalized to the activity measured in untreated cells (dark gray bar), which was set to 1 (mean SD, n = 6 for PANC-1 and n = 4 for PaTu8988T; *: p ≤ 0.05, **: p ≤ 0.01, ***: p ≤ 0.001, using the student t-test). […] After 24 h, gemcitabine (GEM, 1 μM) was added (+) or not (−) for another incubation of 48 h. Subsequently, the apoptotic cell fraction was quantified in % by flow cytometry using FITC-labeled Annexin V (AV) and propidium iodide (PI) staining (in B: mean ± SD, n = 6 for PANC-1 and n = 5 for PaTu8988T; **: p ≤ 0.01, ***: p ≤ 0.001, ****: p ≤ 0.0001, using the student t-test). […] Tumor volumes were measured every second day using a digital caliper. […]
For antigen retrieval, tissue sections were steam-heated for 35 min in citrate buffer (pH 6.0), cooled down to room temperature, and then washed in PBS. […] Fluorescence images were acquired using the Confocal Laser Scanning microscope Leica SP8i and analyzed with IMARIS 9.9.0 (Bitplane-Oxford Instruments, Abingdon, GB) using the Cell module.

The next experiment deals with T1, FLAG-tagged PRMT6 (Homo sapiens, UniProt Q96LA8).
T1 construct: The complete ORFs of human PRMT3 and PRMT6 were inserted; made in house; host or cells: Sf9 insect cells (baculovirus)
T1 sequence (Q96LA8 whole entry): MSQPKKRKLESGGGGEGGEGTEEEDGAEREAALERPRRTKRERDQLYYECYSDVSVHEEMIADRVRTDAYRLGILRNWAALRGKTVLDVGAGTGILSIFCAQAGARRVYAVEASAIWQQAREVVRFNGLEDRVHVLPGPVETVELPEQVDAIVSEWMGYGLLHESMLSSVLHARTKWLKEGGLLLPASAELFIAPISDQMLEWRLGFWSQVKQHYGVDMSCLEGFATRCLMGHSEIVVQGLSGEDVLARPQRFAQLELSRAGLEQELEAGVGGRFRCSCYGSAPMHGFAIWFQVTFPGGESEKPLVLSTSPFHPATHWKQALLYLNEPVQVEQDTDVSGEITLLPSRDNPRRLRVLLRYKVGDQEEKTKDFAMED
Description: Fluorescence-based in vitro PRMT assay (F-PRMT assay), PRMT6. The conditions noted are these: for Experimental result (PRMT6): vs solvent control = 100%. In kind it is biochemical. In outline: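 Baculovirus/Sf9-expressed FLAG-PRMTs (human PRMT3, PRMT6; mouse PRMT4), anti-FLAG purified and used bead-bound, methylated Bz-Arg-AMC with SAM for 2 h at 37 °C, 1,000 rpm. Technical triplicates; no-SAM negative controls.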

As to `CN(C)Cc1cccc(CN/C=C2\C(=O)NC(=O)c3ccccc32)c1.Cl` [TR-07, (Z)-1-[3-({[(1,3-Dioxo-2,3-dihydroisoquinolin-4(1H)-lidene)methyl]amino}methyl)phenyl]-N,N-dimethylmethanaminium chloride], in experiment [1], the “mean intensity ADMA levels in PANC-1 xenografts (IF staining)” value was “elevated mean intensity ADMA levels”. Further, on FLAG-tagged PRMT6 (100 μM compound), the “effect on PRMT6 activity (in words)” value is reported as “neither positively nor negatively influencing”. The “Experimental result (PRMT6)” value on FLAG-tagged PRMT6 (Table 1, 100 μM compound, 2 μM PRMT, n = 3, racemates used) is “PRMT6 n.e. (Compounds, which did not significantly affect the catalytic activity (less than ±6% change or not significant p-value), are marked with [drawing 8] (no effect))”; on FLAG-tagged PRMT6 (Table S3, 100 µM compound, n≥3), “n.e. (did not significantly affect the catalytic activity (less than ±6% change or not significant p-value), are marked with n.e. (no effect))”.
